Measured values taken from ChEMBL document CHEMBL3804809, “Fatty Acid Transport Proteins: Targeting FATP2 as a Gatekeeper Involved in the Transport of Exogenous Fatty Acids” (Medchemcomm, 2016).
One block for each compound: values may come before it.

Assays:
[1] = tested on: Mus musculus; experiment: Inhibition of 3C18-oleate absorption in tyloxapol-treated C57BL/6 mouse plasma at 300 mg/kg administered through gavage for 1 hr followed by 3C18-oleate addition measured after 0.5 to 6 hrs by LC/MS-MS analysis; format: functional; conditions: C57BL/6, Plasma, po
[2] = target: Long-chain fatty acid transport protein 2 (Homo sapiens, UniProt O14975); experiment: Inhibition of FATP2 in human HepG2 cells assessed as decrease in fatty acid transport after 5 mins by trypan blue dye based fluorescence quenching method; format: cell-based
[3] = tested on: Mus musculus; experiment: Downregulation of FATP2 mRNA level in […] null C57BL mouse small intestine at 0.01% administered through diet for 3 days by RT-PCR analysis; format: functional
[4] = tested on: Mus musculus; experiment: Upregulation of FATP2 mRNA level in C57BL mouse small intestine at 0.01% administered through diet for 3 days by RT-PCR analysis; format: functional
[5] = tested on: Mus musculus; experiment: Upregulation of FATP2 mRNA level in C57BL mouse small intestine at 0.1% administered through diet for 3 days by RT-PCR analysis; format: functional
[6] = tested on: Mus musculus; experiment: Downregulation of FATP2 mRNA level in […] null C57BL mouse small intestine at 0.1% administered through diet for 3 days by RT-PCR analysis; format: functional

Long-chain fatty acid transport protein 2, sequence (O14975 whole entry, looked up): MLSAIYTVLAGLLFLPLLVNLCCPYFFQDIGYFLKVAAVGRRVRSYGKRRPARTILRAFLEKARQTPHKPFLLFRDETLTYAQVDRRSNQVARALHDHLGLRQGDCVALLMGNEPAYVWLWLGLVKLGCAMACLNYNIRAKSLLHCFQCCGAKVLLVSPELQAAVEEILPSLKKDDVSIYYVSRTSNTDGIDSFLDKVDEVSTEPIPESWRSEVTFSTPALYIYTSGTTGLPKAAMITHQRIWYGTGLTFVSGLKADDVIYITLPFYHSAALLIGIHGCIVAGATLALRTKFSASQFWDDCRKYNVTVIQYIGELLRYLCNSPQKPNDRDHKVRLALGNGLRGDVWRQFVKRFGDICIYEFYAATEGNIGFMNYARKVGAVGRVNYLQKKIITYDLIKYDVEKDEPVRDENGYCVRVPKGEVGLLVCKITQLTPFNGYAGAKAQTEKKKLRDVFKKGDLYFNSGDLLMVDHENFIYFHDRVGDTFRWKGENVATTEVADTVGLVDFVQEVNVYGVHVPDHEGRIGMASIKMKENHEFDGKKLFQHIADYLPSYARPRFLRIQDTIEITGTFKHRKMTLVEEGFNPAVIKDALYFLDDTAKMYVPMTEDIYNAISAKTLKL

- IC50 [2]: 6.7 µM
Compound: O=C1Nc2ccc(Br)cc2C12NN=C(c1ccccc1)S2 (configuration not stated)
- inhibition in vivo at 300 mg/kg [1]: 80%

- IC50 [2]: 6.3 µM
Compound: O=c1cc(-c2ccc([N+](=O)[O-])cc2)[nH]c2c(-c3ccc(Cl)cc3)c(Cc3ccccc3)nn12

Compound: CC(C)(Sc1ccc(CCN(CCCCC2CCCCC2)C(=O)NC2CCCCC2)cc1)C(=O)O [GW7647]
- fold change (FC) [3]: 2
- fold change (FC) [4]: 4

Compound: Cc1cccc(Nc2cc(Cl)nc(SCC(=O)O)n2)c1C [PIRINIXIC ACID]
- fold change (FC) [5]: 4
- fold change (FC) [6]: 2
